Test results as given in publication PMC4199987 (Drug Design, Development and Therapy, 2014).
Read-outs that look alike come from different tables or passages of the source. Marks after values point to notes of the source that are not given here.

Legend:
whole blood insulin = assay: Postprandial whole blood insulin in healthy subjects; type: in vivo, human
db/db mice = details: young leptin receptor-deficient db/db mice; cited from earlier work
[1] = system: cytochrome P450 (CYP) 3A4; details: in vitro studies; cited from earlier work
[2] = dose range 1.25–60 mg, healthy volunteers; cited from earlier work
serum glucose = assay: Postprandial serum glucose in healthy subjects; type: in vivo, human
[3] = system: antiphagocytic protein 1 (APP1); details: selectivity; cited from earlier work
CYP2D6 = details: in vitro studies; cited from earlier work
prolidase = details: selectivity; cited from earlier work
CYP2C19 = details: in vitro studies; cited from earlier work
CYP3A4 [4] = details: in vitro studies; cited from earlier work
human DPP-I = details: selectivity; cited from earlier work
high fat diet-fed mice = details: cited from earlier work
[5] = Safety and tolerability assessment; type: in vivo, human
active GLP-1 = assay: Postprandial plasma active GLP-1 in healthy subjects; type: in vivo, human
CYP3A4 [6] = details: in vitro studies; cited from earlier work; remark: listed apart in the source
CYP2C9 = details: in vitro studies; cited from earlier work
human DPP-IX = details: selectivity; cited from earlier work
[7] = system: streptozotocin-induced diabetic mice; details: cited from earlier work
[8] = system: fibroblast activation protein-alpha (FAPα); details: selectivity; cited from earlier work
CYP1A2 = details: in vitro studies; cited from earlier work
granzyme B = details: selectivity; cited from earlier work
human DPP-II = details: selectivity; cited from earlier work
human DPP-VIII = details: selectivity; cited from earlier work
[9] = cited from earlier work
[10] = baseline corrected, day 1, 5 mg
[11] = baseline corrected, day 1, 10 mg
[12] = baseline corrected, day 1, 20 mg
[13] = baseline corrected, day 10, 5 mg
[14] = baseline corrected, day 10, 10 mg
[15] = baseline corrected, day 10, 20 mg
[16] = baseline uncorrected, day 1, 5 mg
[17] = baseline uncorrected, day 1, 10 mg
[18] = baseline uncorrected, day 1, 20 mg
[19] = baseline uncorrected, day 10, 5 mg
[20] = baseline uncorrected, day 10, 10 mg
[21] = baseline uncorrected, day 10, 20 mg
[22] = 5 mg (N=8), judged to be related to the study drug
[23] = 5 mg once daily for 10 days (N=8)
[24] = 10 mg (N=8), judged to be related to the study drug
[25] = 10 mg once daily for 10 days (N=8)
[26] = 20 mg (N=8), judged to be related to the study drug
[27] = 20 mg once daily for 10 days (N=8)

SMILES: CC(C)(C)OC[C@@H]1C(=O)NCCN1C(=O)C[C@H](N)Cc1cc(F)c(F)cc1F [Evogliptin]
- Average AUEtotal (CV%) Insulin (whole blood insulin; [10]): 238.3 (15.0) h·μIU/mL
- Average AUEtotal (CV%) Insulin (whole blood insulin; [11]): 315.1 (35.7) h·μIU/mL
- Average AUEtotal (CV%) Insulin (whole blood insulin; [12]): 223.3 (50.8) h·μIU/mL
- Average AUEtotal (CV%) Insulin (whole blood insulin; [13]): 270.9 (36.0) h·μIU/mL
- Average AUEtotal (CV%) Insulin (whole blood insulin; [14]): 410.2 (62.6) h·μIU/mL
- Average AUEtotal (CV%) Insulin (whole blood insulin; [15]): 301.3 (28.6) h·μIU/mL
- Average AUEtotal (CV%) Insulin (whole blood insulin; [16]): 274.9 (14.2) h·μIU/mL
- Average AUEtotal (CV%) Insulin (whole blood insulin; [17]): 360.2 (30.6) h·μIU/mL
- Average AUEtotal (CV%) Insulin (whole blood insulin; [18]): 264.7 (44.0) h·μIU/mL
- Average AUEtotal (CV%) Insulin (whole blood insulin; [19]): 311.3 (32.0) h·μIU/mL
- Average AUEtotal (CV%) Insulin (whole blood insulin; [20]): 460.3 (57.2) h·μIU/mL
- Average AUEtotal (CV%) Insulin (whole blood insulin; [21]): 349.5 (24.7) h·μIU/mL
- effect on onset of diabetes (db/db mice): delayed the onset of diabetes
- induction of CYP3A4 [1]: not an inducer
- dose proportionality of PKs after single dose [2]: dose-proportional PKs
- tolerability after single dose [2]: good tolerability
- reduction of baseline corrected AUEtotal of glucose compared to placebo (serum glucose; 5 mg): 20%
- reduction of baseline corrected AUEtotal of glucose compared to placebo (serum glucose; 10 mg): 25%
- reduction of baseline corrected AUEtotal of glucose compared to placebo (serum glucose; 20 mg): 35%
- effect on fasting glucose levels (serum glucose; 5-20 mg): did not affect the fasting glucose levels
- Average AUEtotal (CV%) Glucose (serum glucose; [10]): 264.1 (36.1) h·mg/dL
- Average AUEtotal (CV%) Glucose (serum glucose; [11]): 234.9 (24.9) h·mg/dL
- Average AUEtotal (CV%) Glucose (serum glucose; [12]): 229.7 (37.6) h·mg/dL
- Average AUEtotal (CV%) Glucose (serum glucose; [13]): 259.4 (25.2) h·mg/dL
- Average AUEtotal (CV%) Glucose (serum glucose; [14]): 242.8 (41.6) h·mg/dL
- Average AUEtotal (CV%) Glucose (serum glucose; [15]): 209.3 (31.0) h·mg/dL
- Average AUEtotal (CV%) Glucose (serum glucose; [16]): 741.3 (14.1) h·mg/dL
- Average AUEtotal (CV%) Glucose (serum glucose; [17]): 747.3 (6.0) h·mg/dL
- Average AUEtotal (CV%) Glucose (serum glucose; [18]): 747.8 (11.9) h·mg/dL
- Average AUEtotal (CV%) Glucose (serum glucose; [19]): 759.6 (9.1) h·mg/dL
- Average AUEtotal (CV%) Glucose (serum glucose; [20]): 751.4 (12.6) h·mg/dL
- Average AUEtotal (CV%) Glucose (serum glucose; [21]): 727.0 (7.2) h·mg/dL
- potency for DPP-IV compared to APP1 [3]: more than 20,000 times
- inhibition of CYP2D6 (CYP2D6): nor an inhibitor
- potency for DPP-IV compared to prolidase (prolidase): more than 20,000 times
- inhibition of CYP2C19 (CYP2C19): nor an inhibitor
- inhibition of CYP3A4 (CYP3A4 [4]): nor an inhibitor
- potency for DPP-IV compared to human DPP-I (human DPP-I): more than 20,000 times
- interindividual variability (CV%) of AUCτ,ss (5-20 mg): < 20%
- interindividual variability (CV%) of Cmax,ss (5-20 mg): < 30%
- time to attain steady state (all dosage groups, once daily): ≤ 3 days
- fess (fraction of the administered drug excreted into the urine at the steady state) (day 10, 5 mg once daily, mean ± SD): 0.34±0.08
- fess (fraction of the administered drug excreted into the urine at the steady state) (day 10, 10 mg once daily, mean ± SD): 0.27±0.12
- fess (fraction of the administered drug excreted into the urine at the steady state) (day 10, 20 mg once daily, mean ± SD): 0.27±0.04
- CLss/F (day 10, steady state, 5 mg once daily, mean ± SD): 49.4 ± 9.6 L/h
- CLss/F (day 10, steady state, 10 mg once daily, mean ± SD): 63.4 ± 10.7 L/h
- CLss/F (day 10, steady state, 20 mg once daily, mean ± SD): 54.3 ± 8.6 L/h
- Tmax (human, in vivo): 4 to 5 h
- AUC(0-t) (human, in vivo, 5 mg): 73 ± 15.3 ng·h/mL
- Cmax (human, in vivo, 5 mg, Cmax, day 1, 5 mg, mean ± SD): 4.9 ± 1.8 ng/mL
- Cmax (human, in vivo, 5 mg, Cmax,ss, day 10, steady state, 5 mg once daily, mean ± SD): 6.7 ± 1.9 ng/mL
- half-life (human, in vivo, 5 mg, t1/2,ss, day 10, steady state, 5 mg once daily, mean ± SD): 32.9 ± 6.1 h
- AUC(0-t) (human, in vivo, 10 mg): 118 ± 24.2 ng·h/mL
- Cmax (human, in vivo, 10 mg, Cmax, day 1, 10 mg, mean ± SD): 9.5 ± 2.1 ng/mL
- AUC(0-t) (human, in vivo, 20 mg): 254 ± 44 ng·h/mL
- Cmax (human, in vivo, 20 mg, Cmax, day 1, 20 mg, mean ± SD): 21.7 ± 3.7 ng/mL
- Tmax (human, in vivo, po, 5 mg): 5.1 h
- Tmax (human, in vivo, po, 10 mg): 5 h
- Tmax (human, in vivo, po, 20 mg): 4.5 h
- dose linearity of PKs (within the 5–20 mg dose range, repeated administration): linear PKs
- effect on insulin sensitivity (high fat diet-fed mice): improved insulin sensitivity
- Cough, number of cases ([5]; 5 mg (N=8)): 1
- Epigastric discomfort, number of cases ([5]; 5 mg (N=8)): 1
- Eyeball pain, number of cases ([5]; 5 mg (N=8)): 1
- Poor-quality sleep, number of cases ([5]; 5 mg (N=8)): 1
- Rhinorrhea, number of cases ([5]; 5 mg (N=8)): 1
- Sweating, number of cases ([5]; 5 mg (N=8)): 1
- Throat irritation, number of cases ([5]; 5 mg (N=8)): 1
- Vasovagal syncope, number of cases ([5]; 5 mg (N=8)): 1
- Fatigue, number of cases [5, 22]: 1 ^a
- Insomnia, number of cases [5, 22]: 1 ^a
- % of subjects with AEs in a group [5, 23]: 50%
- AEs, number of cases [5, 23]: 10
- Musculoskeletal discomfort, number of cases ([5]; 10 mg (N=8)): 1
- Pharyngitis, number of cases ([5]; 10 mg (N=8)): 1
- Epigastric discomfort, number of cases [5, 24]: 1 ^a
- Sweating, number of cases [5, 24]: 1 ^a
- % of subjects with AEs in a group [5, 25]: 50%
- AEs, number of cases [5, 25]: 5
- Joint pain, number of cases ([5]; 20 mg (N=8)): 1
- Prurigo, number of cases ([5]; 20 mg (N=8)): 1
- Headache, number of cases [5, 26]: 1 ^a
- Increased urinary frequency, number of cases [5, 26]: 1 ^a
- % of subjects with AEs in a group [5, 27]: 37.5%
- AEs, number of cases [5, 27]: 4
- Serious AEs ([5]; 5-20 mg once daily for 10 days): No serious AEs were reported
- Severity of AEs ([5]; 5-20 mg once daily for 10 days): all AEs were mild in severity
- AEs, number of cases in subjects administered evogliptin ([5]; all evogliptin dose groups, 5-20 mg for 10 days): 19 cases
- Subjects with AEs among those administered evogliptin ([5]; all evogliptin dose groups, eleven subjects): 45.8%
- Tolerability of repeated administration ([5]; healthy subjects, 5–20 mg dose range): well tolerated
- Average AUEtotal (CV%) GLP-1 (active GLP-1; [10]): 25.7 (48.3) pM·h
- Average AUEtotal (CV%) GLP-1 (active GLP-1; [11]): 24.9 (46.0) pM·h
- Average AUEtotal (CV%) GLP-1 (active GLP-1; [12]): 45.3 (73.8) pM·h
- Average AUEtotal (CV%) GLP-1 (active GLP-1; [13]): 25.4 (56.7) pM·h
- Average AUEtotal (CV%) GLP-1 (active GLP-1; [14]): 22.2 (41.0) pM·h
- Average AUEtotal (CV%) GLP-1 (active GLP-1; [15]): 35.5 (67.3) pM·h
- Average AUEtotal (CV%) GLP-1 (active GLP-1; [16]): 55.8 (49.6) pM·h
- Average AUEtotal (CV%) GLP-1 (active GLP-1; [17]): 55.0 (35.9) pM·h
- Average AUEtotal (CV%) GLP-1 (active GLP-1; [18]): 82.8 (55.3) pM·h
- Average AUEtotal (CV%) GLP-1 (active GLP-1; [19]): 75.7 (111.2) pM·h
- Average AUEtotal (CV%) GLP-1 (active GLP-1; [20]): 52.6 (25.0) pM·h
- Average AUEtotal (CV%) GLP-1 (active GLP-1; [21]): 72.8 (37.0) pM·h
- enzyme mediating metabolism (CYP3A4 [6]): primarily mediated by CYP3A4
- inhibition of CYP2C9 (CYP2C9): nor an inhibitor
- potency for DPP-IV compared to human DPP-IX (human DPP-IX): 6,000 times
- effect on β-cell replication and neogenesis [7]: increased β-cell replication and neogenesis
- potency for DPP-IV compared to FAPα [8]: more than 20,000 times
- inhibition of CYP1A2 (CYP1A2): nor an inhibitor
- potency for DPP-IV compared to granzyme B (granzyme B): more than 20,000 times
- potency for DPP-IV compared to human DPP-II (human DPP-II): more than 20,000 times
- potency for DPP-IV compared to human DPP-VIII (human DPP-VIII): 6,000 times

SMILES: CC#CCn1c(N2CCC[C@@H](N)C2)nc2c1c(=O)n(Cc1nc(C)c3ccccc3n1)c(=O)n2C [linagliptin]
- terminal elimination half-life [9]: 120 h
